# From US20240158446A1, “CYCLIC COMPOUND HAVING SELECTIVE INHIBITORY ACTION ON KRAS OVER HRAS AND NRAS” (CHUGAI SEIYAKU KABUSHIKI KAISHA, priority 2021, published 2024)
# Read-outs that look alike come from different tables or passages of the source.
# Columns and labels:
# [1] = target: GDP-bound NRAS wild-type protein (Homo sapiens, UniProt P01111); assay: Binding to NRAS by surface plasmon resonance (SPR), Single Cycle Kinetics; conditions: SPR, GDP-bound NRAS wild-type protein vs GDP-bound KRAS wild-type protein
# Sequence of GDP-bound NRAS wild-type protein (P01111 whole entry): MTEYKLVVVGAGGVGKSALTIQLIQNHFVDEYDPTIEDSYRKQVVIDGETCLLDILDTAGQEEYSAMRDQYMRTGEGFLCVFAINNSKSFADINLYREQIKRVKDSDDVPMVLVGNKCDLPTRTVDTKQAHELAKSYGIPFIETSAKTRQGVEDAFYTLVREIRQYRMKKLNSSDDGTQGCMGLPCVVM
# [2] = target: GDP-bound HRAS wild-type protein (Homo sapiens, UniProt P01112); assay: Binding to HRAS by surface plasmon resonance (SPR), Single Cycle Kinetics; conditions: SPR, GDP-bound HRAS wild-type protein vs GDP-bound KRAS wild-type protein
# Sequence of GDP-bound HRAS wild-type protein (P01112 whole entry): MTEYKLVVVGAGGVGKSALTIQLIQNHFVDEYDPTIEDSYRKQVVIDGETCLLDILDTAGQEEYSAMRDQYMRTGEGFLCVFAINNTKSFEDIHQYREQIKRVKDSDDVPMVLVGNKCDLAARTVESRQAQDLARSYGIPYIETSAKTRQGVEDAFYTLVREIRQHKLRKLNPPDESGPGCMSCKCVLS
# [3] = target: GDP-bound KRAS wild-type protein (Homo sapiens, UniProt P01116); assay: Binding to KRAS by surface plasmon resonance (SPR), Single Cycle Kinetics; conditions: GDP-bound KRAS wild-type protein, read-out: KRAS KD
# Sequence of GDP-bound KRAS wild-type protein (P01116 whole entry): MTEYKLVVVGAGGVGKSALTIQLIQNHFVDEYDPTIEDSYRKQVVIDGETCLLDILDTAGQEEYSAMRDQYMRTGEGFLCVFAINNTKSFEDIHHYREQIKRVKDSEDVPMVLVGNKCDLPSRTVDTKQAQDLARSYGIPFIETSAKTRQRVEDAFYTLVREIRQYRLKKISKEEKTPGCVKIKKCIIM
# [4] = SPR Single Cycle Kinetics, 1:1 binding model
"Kd [3, 4] [nM]","Kd ([3]; SPR, Single Cycle Kinetics) [nM]",SMILES,NRAS/KRAS (ratio of KD value with respect to NRAS to KD value with respect to KRAS) [1],HRAS/KRAS (ratio of KD value with respect to HRAS to KD value with respect to KRAS) [2],NRAS/KRAS (ratio of KD value for NRAS to KD value for KRAS) [1],HRAS/KRAS (ratio of KD value for HRAS to KD value for KRAS) [2]
0.027,,CC[C@H](C)[C@@H]1NC(=O)[C@H](CC(C)C)N(C)C(=O)C[C@@H](C(=O)N2CCOCC2)N(C)C(=O)[C@H](C2CCCC2)N(C)C(=O)C2(CCC2)NC(=O)[C@]2(C)CCCN2C(=O)[C@H](CCc2cc(F)c(C(F)(F)F)c(F)c2)NC(=O)CN(C)C(=O)[C@H](Cc2ccc(C(F)(F)F)cc2)N2CCCC[C@@H](C2=O)N(C)C(=O)CN(C)C1=O [PP0808],B (a compound having 3 or more and less than 10 is denoted as B),B (a compound having 3 or more and less than 10 is denoted as B),,
0.027,,CC[C@H](C)[C@@H]1NC(=O)[C@H](CC(C)C)N(C)C(=O)C[C@@H](C(=O)N2CCOCC2)N(C)C(=O)[C@H](C2CCCC2)N(C)C(=O)C2(CCC2)NC(=O)[C@@H]2C[C@@H](C(F)(F)F)CN2C(=O)[C@H](CCc2cc(F)c(C(F)(F)F)c(F)c2)NC(=O)CN(C)C(=O)[C@H](Cc2ccc(C(F)(F)F)cc2)N2CCCC[C@@H](C2=O)N(C)C(=O)CN(C)C1=O [PP0809],B (a compound having 3 or more and less than 10 is denoted as B),B (a compound having 3 or more and less than 10 is denoted as B),,
,0.04,CC[C@H](C)[C@@H]1NC(=O)[C@H](CC(C)C)N(C)C(=O)C[C@@H](C(=O)N2CCOCC2)N(C)C(=O)[C@H](C2CCCC2)N(C)C(=O)C2(CCC2)NC(=O)[C@@H]2[C@H]3C[C@H]3CN2C(=O)[C@H](CCc2cc(F)c(C(F)(F)F)c(F)c2)NC(=O)CN(C)C(=O)[C@H](Cc2ccc(C(F)(F)F)cc2)N2CCCC[C@@H](C2=O)N(C)C(=O)CN(C)C1=O [PP0810],,,B (a compound having 3 or more and less than 10 is denoted as B),B (a compound having 3 or more and less than 10 is denoted as B)
,0.083,CCO[C@@H]1C[C@H]2C(=O)NC3(CCC3)C(=O)N(C)[C@@H](C(CC)CC)C(=O)N(C)[C@H](C(=O)N3CCOCC3)CC(=O)N(C)[C@@H](CC(C)C)C(=O)N[C@@H]([C@@H](C)CC)C(=O)N(C)CC(=O)N(C)[C@H]3CCCCN(C3=O)[C@@H](Cc3ccc(C(F)(F)F)cc3)C(=O)N(C)CC(=O)N[C@@H](CCc3cc(F)c(C(F)(F)F)c(F)c3)C(=O)N2C1 [PP0811],,,B (a compound having 3 or more and less than 10 is denoted as B),B (a compound having 3 or more and less than 10 is denoted as B)
,0.4,CCO[C@@H]1C[C@H]2C(=O)NC3(CCC3)C(=O)N(C)[C@@H](CC(F)F)C(=O)N(C)[C@H](C(=O)N3CCOCC3)CC(=O)N(C)[C@@H](CC(C)C)C(=O)N[C@@H]([C@@H](C)CC)C(=O)N(C)CC(=O)N(C)[C@H]3CCCCN(C3=O)[C@@H](Cc3ccc(C(F)(F)F)cc3)C(=O)N(C)CC(=O)N[C@@H](CCc3cc(F)c(C(F)(F)F)c(F)c3)C(=O)N2C1 [PP0813],,,C (A compound having a KD ratio of 0.1 or more and less than 3 is denoted as C),B (a compound having 3 or more and less than 10 is denoted as B)
,0.039,CCO[C@@H]1C[C@H]2C(=O)NC3(CCC3)C(=O)N(C)[C@@H](C(C)(C)C)C(=O)N(C)[C@H](C(=O)N3CCOCC3)CC(=O)N(C)[C@@H](CC(C)C)C(=O)N[C@@H]([C@@H](C)CC)C(=O)N(C)CC(=O)N(C)[C@H]3CCCCN(C3=O)[C@@H](Cc3ccc(C(F)(F)F)cc3)C(=O)N(C)CC(=O)N[C@@H](CCc3cc(F)c(C(F)(F)F)c(F)c3)C(=O)N2C1 [PP0814],,,B (a compound having 3 or more and less than 10 is denoted as B),B (a compound having 3 or more and less than 10 is denoted as B)
,1.7,CC[C@H](C)[C@@H]1NC(=O)[C@H](CC(C)C)N(C)C(=O)C[C@@H](C(=O)N2CCOCC2)N(C)C(=O)[C@H](C2CCCC2)N(C)C(=O)C2(CCC2)NC(=O)[C@@H]2C[C@@H](C(F)(F)F)CN2C(=O)[C@H](CCc2cc(F)c(C(F)(F)F)c(F)c2)NC(=O)CN(C)C(=O)[C@H](Cc2ccc(C(F)(F)F)cc2)N2CCCCC[C@@H](C2=O)N(C)C(=O)CN(C)C1=O [PP0818],,,B (a compound having 3 or more and less than 10 is denoted as B),B (a compound having 3 or more and less than 10 is denoted as B)
,5.7,CCO[C@@H]1C[C@H]2C(=O)NC3(CCC3)C(=O)N(C)[C@@H](CC(F)F)C(=O)N(C)[C@H](C(=O)N3CCOCC3)CC(=O)N(C)[C@@H](CC(C)C)C(=O)N[C@@H]([C@@H](C)CC)C(=O)N(C)CC(=O)N(C)[C@H]3CCCCCN(C3=O)[C@@H](Cc3ccc(C(F)(F)F)cc3)C(=O)N(C)CC(=O)N[C@@H](CCc3cc(F)c(C(F)(F)F)c(F)c3)C(=O)N2C1 [PP0822],,,B (a compound having 3 or more and less than 10 is denoted as B),B (a compound having 3 or more and less than 10 is denoted as B)
,0.82,CCO[C@@H]1C[C@H]2C(=O)NC3(CCC3)C(=O)N(C)[C@@H](C(C)(C)C)C(=O)N(C)[C@H](C(=O)N3CCOCC3)CC(=O)N(C)[C@@H](CC(C)C)C(=O)N[C@@H]([C@@H](C)CC)C(=O)N(C)CC(=O)N(C)[C@H]3CCCCCN(C3=O)[C@@H](Cc3ccc(C(F)(F)F)cc3)C(=O)N(C)CC(=O)N[C@@H](CCc3cc(F)c(C(F)(F)F)c(F)c3)C(=O)N2C1 [PP0823],,,A (a compound having 10 or more and less than 20 is denoted as A),B (a compound having 3 or more and less than 10 is denoted as B)
,0.055,"CCO[C@@H]1C[C@H]2C(=O)NC3(CCC3)C(=O)N(C)[C@@H](C3CCCC3)C(=O)N(C)[C@H](C(=O)N(C)C)CC(=O)N(C)[C@@H](CC)C(=O)N[C@@H]([C@@H](C)CC)C(=O)N(C)CC(=O)N(C)[C@H]3C/C=C\CCN(C3=O)[C@@H](Cc3ccc(C(F)(F)F)cc3)C(=O)N(C)CC(=O)N[C@@H](CCc3cc(F)c(C(F)(F)F)c(F)c3)C(=O)N2C1 [PP0824, (2S,8S,12R,14S,20S,23S,27S,30S,36S,38Z)-20-cyclopentyl-8-[2-[3,5-difluoro-4-(trifluoromethyl)phenyl]ethyl]-12-ethoxy-27-ethyl-N,N,4,19,22,26,32,35-octamethyl-30-[(1S)-1-methylpropyl]-3,6,9,15,18,21,25,28,31,34,42-undecaoxo-2-[[4-(trifluoromethyl)phenyl]methyl]spiro[1,4,7,10,16,19,22,26,29,32,35-undecazatricyclo[34.5.1.0^10,14]dotetracont-38-ene-17,1′-cyclobutane]-23-carboxamide]",,,A (a compound having 10 or more and less than 20 is denoted as A),A (a compound having 10 or more and less than 20 is denoted as A)
,0.23,"CCO[C@@H]1C[C@H]2C(=O)NC3(CCC3)C(=O)N(C)[C@@H](C3CCCC3)C(=O)N(C)[C@H](C(=O)N3CCOCC3)CC(=O)N(C)[C@@H](CC(C)C)C(=O)N[C@@H]([C@@H](C)CC)C(=O)N(C)CC(=O)N(C)[C@H]3C/C=C\CCN(C3=O)[C@@H](Cc3ccc(C(F)(F)F)cc3)C(=O)N(C)CC(=O)N[C@@H](CCc3ccc(C(F)(F)F)c(Cl)c3)C(=O)N2C1 [PP0825, (2S,8S,12R,14S,20S,23S,27S,30S,36S,38Z)-8-[2-[3-chloro-4-(trifluoromethyl)phenyl]ethyl]-20-cyclopentyl-12-ethoxy-27-isobutyl-4,19,22,26,32,35-hexamethyl-30-[(1S)-1-methylpropyl]-23-(morpholine-4-carbonyl)-2-[[4-(trifluoromethyl)phenyl]methyl]spiro[1,4,7,10,16,19,22,26,29,32,35-undecazatricyclo[34.5.1.0^10,14]dotetracont-38-ene-17,1′-cyclobutane]-3,6,9,15,18,21,25,28,31,34,42-undecone]",,,A (a compound having 10 or more and less than 20 is denoted as A),A (a compound having 10 or more and less than 20 is denoted as A)
,0.11,CCO[C@@H]1C[C@H]2C(=O)NC3(CCC3)C(=O)N(C)[C@@H](C3CCCC3)C(=O)N(C)[C@H](C(=O)N(C)C)CC(=O)N(C)[C@@H](CC)C(=O)N[C@@H]([C@@H](C)CC)C(=O)N(C)CC(=O)N(C)[C@H]3CC=C(C)CN(C3=O)[C@@H](Cc3ccc(C(F)(F)F)cc3)C(=O)N(C)CC(=O)N[C@@H](CCc3cc(F)c(C(F)(F)F)c(F)c3)C(=O)N2C1 [PP0827],,,C (A compound having a KD ratio of 0.1 or more and less than 3 is denoted as C),C (A compound having a KD ratio of 0.1 or more and less than 3 is denoted as C)
,0.17,CCO[C@@H]1C[C@H]2C(=O)NC3(CC(F)(F)C3)C(=O)N(C)[C@@H](C3CCCC3)C(=O)N(C)[C@H](C(=O)N3CCOCC3)CC(=O)N(C)[C@@H](CC(C)C)C(=O)N[C@@H]([C@@H](C)CC)C(=O)N(C)CC(=O)N(C)[C@H]3CC=C(C)CN(C3=O)[C@@H](Cc3ccc(C(F)(F)F)cc3)C(=O)N(C)CC(=O)N[C@@H](CCc3cc(F)c(C(F)(F)F)c(F)c3)C(=O)N2C1 [PP0828],,,C (A compound having a KD ratio of 0.1 or more and less than 3 is denoted as C),C (A compound having a KD ratio of 0.1 or more and less than 3 is denoted as C)
